Data as given in patent US20160304547A1, “MACROLIDE COMPOUND” (PULIKE BIOLOGICAL ENGINEERING, INC, priority 2013, published 2016).
Converted amounts (≈) assume the structure as drawn. Like-named read-outs stand apart in the source and are kept apart here.

Key:
[1] = tested on: Staphylococcus aureus CVCC26003; assay: MIC by mini broth dilution technique (in vitro susceptibility); format: cell-based
Experimental: (§1) in vitro tests of susceptibility of the compounds according to the present disclosure against bacterial strains commonly used in laboratories. In accordance with the Performance Standards for Antimicrobial Disk Susceptibility Tests: Approved Standard published by the US National Committee for Clinical Laboratory Standards, the antibactetial activities of compounds prepared according to examples 5 to 187 were tested. The MICs (minimum inhibitory concentration) of the medicaments prepared according to the examples on the following bacterial strains were measured through mini broth dilution technique. Staphylococcus aureus CVCC26003, Streptococcus equines CVCC556. Actinobacillus pleuropneumoniae CVCC262, Haemophilus parasuis, and Pasteurella multocida CVCC399, which were purchased from the Control Institute of Veterinary Bioproducts and Pharmaceuticals, China. Liquid culture medium: CAMHB. […] Solid culture medium: NINA prepared according to the specification of the final product. The strains were taken out of a regrigerator at −20° C. to be revived, and were spreaded by streaking on the solid culture medium with an inoculating loop. The inoculated culture medium was cultured at 35° C. in a constant temperature incubator for 20 h. Monoclonal antibodies were selected from a well-grown culture plate and streaked on the solid culture medium. The inoculated culture medium was cultured at 35° C. in the constant temperature incubator for 20 h. […] A 96-well plate was used, and 100 μl of DMSO was added into each of wells 2 to 11, and 200 μl of ready-prepared medicament solution was added into the 1st well, 100 μl of the medicament solution was extracted from the 1st well and added into the 2nd well. Double dilution was performed until the 11th well, thereby forming 11 gradients. In this case, compound of parent plate was prepared. 3 μl of double diluted medicament solution was extracted with a 12-channel pipettor and added into wells 1-11 of a new disposable 96-well culture plate. The 12th well thereof is a controll well. For each medicament, there are two adjacent rows which are parallel. The transferred compound plate was reserved for later use. […] The dilution ratio was recorded, and the bacterial liquid for the tests was diluted according to the recorded dilution ratio. Subsequently, the bacterial suspension and the liquid culture medium were diluted in the proportion of 1:200. The diluted solution was reserved for later use.

[2] = tested on: Actinobacillus pleuropneumoniae CVCC262; assay: as above; format: cell-based
Experimental: as §1, with “medium:” for “medium: CAMHB.”, “NINA prepared according to the specification of the final product.” left out

Haemophilus parasuis = assay: as above; format: cell-based; details: Glaesserella parasuis, read-out: MIC values Haemophilus parasuis
Experimental: as §1, with “medium:” for “medium: CAMHB.”, “NINA prepared according to the specification of the final product.” left out

[3] = tested on: Pasteurella multocida CVCC399; assay: as above; format: cell-based
Experimental: as §1, with “medium:” for “medium: CAMHB.”, “NINA prepared according to the specification of the final product.” left out

[4] = tested on: Streptococcus equines CVCC556; assay: as above; format: cell-based
Experimental: as §1, with “medium:” for “medium: CAMHB.”, “NINA prepared according to the specification of the final product.” left out

[5] = tested on: Streptococcus pneumoniae CMCC 31203; assay: In vivo antibacterial test, survival of infected BALB/c mice; details: CMCC31203, sc, 168 h, read-out: Animal survival rate
[6] = Staphylococcus aureus CVCC26003, broth dilution, read-out: MIC values Staphylococcus aureus CVCC26003
[7] = Actinobacillus pleuropneumoniae CVCC262, broth dilution, read-out: MIC values Actinobacillus pleuropneumoniae CVCC262
[8] = Haemophilus parasuis, broth dilution
[9] = Pasteurella multocida CVCC399, broth dilution, read-out: MIC values Pasteurella multocida CVCC399
[10] = Streptococcus equines CVCC556, broth dilution, read-out: MIC values Streptococcus equines CVCC556
[11] = BALB/c mice infected i.p. with Streptococcus pneumoniae, 5 mg per kg s.c. via neck for 3 consecutive days, deaths recorded until the seventh day

CC[C@@H]1OC(=O)[C@H](C)[C@H](OC2C[C@@](C)(OC)[C@](O)(CNCC(C)C)[C@H](C)O2)[C@@H](C)[C@@H](O[C@@H]2O[C@H](C)C[C@H](N(C)C)[C@H]2O)[C@](C)(O)C[C@@H](C)NC[C@@H](C)[C@H](O)[C@]1(C)O (stereo partly drawn) [syzx-12, (2R,3S,4R,5S,8R,10R,11R,12S,13S,14R)-13-[(2,6-dideoxy-3-C-methyl-3-O-methyl-4-C-[(isobutylamino)methyl]-α-L-ribopyranosyl)oxy]-2-ethyl-3,4,10-trihydroxy-3,5,8,10,12,14-hexamethyl-11-[[3,4,6-trideoxy-3-(dimethylamino)-β-D-xylo-hexopyranosy]oxy]-1-oxa-7-azacyclopentadecan-15-one]
MIC [1, 6]: ≤ 0.25 µg/mL | MIC [2, 7]: ≤ 0.25 µg/mL | MIC (Haemophilus parasuis; [8]): ≤ 0.25 µg/mL | MIC [3, 9]: ≤ 0.25 µg/mL | MIC [4, 10]: ≤ 0.25 µg/mL | responders at 5 mg/kg [5, 11]: 70%

CC[C@@H]1OC(=O)[C@H](C)[C@H](OC2C[C@@](C)(OC)[C@](O)(CNC(C)(C)C)[C@H](C)O2)[C@@H](C)[C@@H](O[C@@H]2O[C@H](C)C[C@H](N(C)C)[C@H]2O)[C@](C)(O)C[C@@H](C)NC[C@@H](C)[C@H](O)[C@]1(C)O (stereo partly drawn) [syzx-14]
MIC [1, 6]: ≤ 0.25 µg/mL | MIC [2, 7]: 0.5 µg/mL (≈ 0.61 µM) | MIC (Haemophilus parasuis; [8]): ≤ 0.25 µg/mL | MIC [3, 9]: 0.25 µg/mL (≈ 0.305 µM) | MIC [4, 10]: ≤ 0.25 µg/mL | responders at 5 mg/kg [5, 11]: 70%

CC[C@@H]1OC(=O)[C@H](C)[C@H](OC2C[C@@](C)(OC)[C@](O)(CN3CCCCC3)[C@H](C)O2)[C@@H](C)[C@@H](O[C@@H]2O[C@H](C)C[C@H](N(C)C)[C@H]2O)[C@](C)(O)C[C@@H](C)NC[C@@H](C)[C@H](O)[C@]1(C)O (stereo partly drawn) [syzx-15, (2R,3S,4R,5S,8R,10R,11R,12S,13S,14R)-13-[(2,6-dideoxy-3-C-methyl-3-O-methyl-4-C-[piperidinylmethyl]-α-L-ribopyranosyl)oxy]-2-ethyl-3,4,10-trihydroxy-3,5,8,10,12,14-hexamethyl-11-[[3,4,6-trideoxy-3-(dimethylamino)-β-D-xylo-hexopyranosy]oxy]-1-oxa-7-azacyclopentadecan-15-one]
MIC [1, 6]: ≤ 0.25 µg/mL | MIC [2, 7]: 0.5 µg/mL (≈ 0.601 µM) | MIC (Haemophilus parasuis; [8]): ≤ 0.25 µg/mL | MIC [3, 9]: ≤ 0.25 µg/mL | MIC [4, 10]: ≤ 0.25 µg/mL | responders at 5 mg/kg [5, 11]: 70%

CC[C@@H]1OC(=O)[C@H](C)[C@H](OC2C[C@@](C)(OC)[C@](O)(CNCC3CC3)[C@H](C)O2)[C@@H](C)[C@@H](O[C@@H]2O[C@H](C)C[C@H](N(C)C)[C@H]2O)[C@](C)(O)C[C@@H](C)NC[C@@H](C)[C@H](O)[C@]1(C)O (stereo partly drawn) [syzx-17, (2R,3S,4R,5S,8R,10R,11R,12S,13S,14R)-13-[(2,6-dideoxy-3-C-methyl-3-O-methyl-4-C-[(cyclopropylmethylamino)methyl]-α-L-ribopyranosyl)oxy]-2-ethyl-3,4,10-trihydroxy-3,5,8,10,12,14-hexamethyl-11-[[3,4,6-trideoxy-3-(dimethylamino)-β-D-xylo-hexopyranosy]oxy]-1-oxa-7-azacyclopentadecan-15-one]
MIC [1, 6]: ≤ 0.25 µg/mL | MIC [2, 7]: 2 µg/mL (≈ 2.44 µM) | MIC (Haemophilus parasuis; [8]): ≤ 0.25 µg/mL | MIC [3, 9]: 0.25 µg/mL (≈ 0.306 µM) | MIC [4, 10]: ≤ 0.25 µg/mL | responders at 5 mg/kg [5, 11]: 70%

CC[C@@H]1OC(=O)[C@H](C)[C@H](OC2C[C@@](C)(OC)[C@](O)(CNC3CCCC3)[C@H](C)O2)[C@@H](C)[C@@H](O[C@@H]2O[C@H](C)C[C@H](N(C)C)[C@H]2O)[C@](C)(O)C[C@@H](C)NC[C@@H](C)[C@H](O)[C@]1(C)O (stereo partly drawn) [syzx-30, (2R,3S,4R,5S,8R,10R,11R,12S,13S,14R)-13-[(2,6-dideoxy-3-C-methyl-3-O-methyl-4-C-[(cyclopentylamino)-methyl]-α-L-ribopyranosyl)oxy]-2-ethyl-3,4,10-trihydroxy-3,5,8,10,12,14-hexamethyl-11-[[3,4,6-trideoxy-3-(dimethylamino)-β-D-xylo-hexopyranosy]oxy]-1-oxa-7-azacyclopentadecan-15-one]
MIC [1, 6]: ≤ 0.25 µg/mL | MIC [2, 7]: 0.5 µg/mL (≈ 0.601 µM) | MIC (Haemophilus parasuis; [8]): 0.5 µg/mL (≈ 0.601 µM) | MIC [3, 9]: ≤ 0.25 µg/mL | MIC [4, 10]: ≤ 0.25 µg/mL | responders at 5 mg/kg [5, 11]: 80%

CC[C@@H]1OC(=O)[C@H](C)[C@H](OC2C[C@@](C)(OC)[C@](O)(CNCc3cccc(OC)c3)[C@H](C)O2)[C@@H](C)[C@@H](O[C@@H]2O[C@H](C)C[C@H](N(C)C)[C@H]2O)[C@](C)(O)C[C@@H](C)NC[C@@H](C)[C@H](O)[C@]1(C)O (stereo partly drawn) [syzx-35, (2R,3S,4R,5S,8R,10R,11R,12S,13S,14R)-13-[(2,6-dideoxy-3-C-methyl-3-O-methyl-4-C-[[3-methoxybenzyl-amino]-methyl]-α-L-ribopyranosyl)oxy]-2-ethyl-3,4,10-trihydroxy-3,5,8,10,12,14-hexamethyl-11-[[3,4,6-trideoxy-3-(dimethylamino)-β-D-xylo-hexopyranosy]oxy]-1-oxa-7-azacyclopentadecan-15-one]
MIC ([1]; Staphylococcus aureus, CVCC26003, read-out: MIC values Staphylococcus aureus CVCC26003): 0.25 µg/mL (≈ 0.283 µM) | MIC ([2]; Actinobacillus pleuropneumoniae, CVCC262, read-out: MIC values Actinobacillus pleuropneumoniae CVCC262): 0.25 µg/mL (≈ 0.283 µM) | MIC (Haemophilus parasuis): 0.25 µg/mL (≈ 0.283 µM) | MIC ([3]; Pasteurella multocida, CVCC399, read-out: MIC values Pasteurella multocida CVCC399): 1 µg/mL (≈ 1.13 µM) | MIC ([4]; Streptococcus, CVCC556, read-out: MIC values Streptococcus equines CVCC556): 0.5 µg/mL (≈ 0.566 µM) | responders at 5 mg/kg ([5]; Streptococcus pneumoniae): 70%

CCCCCNC[C@]1(O)[C@H](C)OC(O[C@@H]2[C@@H](C)[C@@H](O[C@@H]3O[C@H](C)C[C@H](N(C)C)[C@H]3O)[C@](C)(O)C[C@@H](C)NC[C@@H](C)[C@H](O)[C@](C)(O)[C@H](CC)OC(=O)[C@@H]2C)C[C@@]1(C)OC (stereo partly drawn) [syzx-47, (2R,3S,4R,5S,8R,10R,11R,12S,13S,14R)-13-[(2,6-dideoxy-3-C-methyl-3-O-methyl-4-C-[[n-pentyl-amino]-methyl]-α-L-ribopyranosyl)oxy]-2-ethyl-3,4,10-trihydroxy-3,5,8,10,12,14-hexamethyl-11-[[3,4,6-trideoxy-3-(dimethylamino)-β-D-xylo-hexopyranosy]oxy]-1-oxa-7-azacyclopentadecan-15-one]
MIC [1, 6]: 1 µg/mL (≈ 1.2 µM) | MIC [2, 7]: 0.5 µg/mL (≈ 0.599 µM) | MIC (Haemophilus parasuis; [8]): 0.5 µg/mL (≈ 0.599 µM) | MIC [3, 9]: ≤ 0.25 µg/mL | MIC [4, 10]: ≤ 0.25 µg/mL | responders at 5 mg/kg [5, 11]: 90%

CC[C@@H]1OC(=O)[C@H](C)[C@H](OC2C[C@@](C)(OC)[C@](O)(CNCc3cnc(C)cn3)[C@H](C)O2)[C@@H](C)[C@@H](O[C@@H]2O[C@H](C)C[C@H](N(C)C)[C@H]2O)[C@](C)(O)C[C@@H](C)NC[C@@H](C)[C@H](O)[C@]1(C)O (stereo partly drawn) [syzx-65]
MIC [1, 6]: ≤ 0.25 µg/mL | MIC [2, 7]: 32 µg/mL (≈ 36.8 µM) | MIC (Haemophilus parasuis; [8]): ≤ 0.25 µg/mL | MIC [3, 9]: 1 µg/mL (≈ 1.15 µM) | MIC [4, 10]: ≤ 0.25 µg/mL | responders at 5 mg/kg [5, 11]: 90%
